Measured values as given in PubChem BioAssay AID1896 (NMMLSC, 2009).
Activity calls are given as the source filed them. The rule behind the calls is not given here.

Target: Mitogen-activated protein kinase kinase kinase 3 (Homo sapiens) (UniProt Q99759)
Experiment: inhibitors of MEK5 binding to MEKK3, dose response, biochemical, bead multiplex flow cytometry, wildtype (AID 1896)
Conditions: bead-based multiplex flow cytometry, MEK5-MEKK3 PB1 binding; for Ki: measured here: Ki from EC50

Chain of Mitogen-activated protein kinase kinase kinase 3 (Homo sapiens) (Q99759 whole entry, looked up): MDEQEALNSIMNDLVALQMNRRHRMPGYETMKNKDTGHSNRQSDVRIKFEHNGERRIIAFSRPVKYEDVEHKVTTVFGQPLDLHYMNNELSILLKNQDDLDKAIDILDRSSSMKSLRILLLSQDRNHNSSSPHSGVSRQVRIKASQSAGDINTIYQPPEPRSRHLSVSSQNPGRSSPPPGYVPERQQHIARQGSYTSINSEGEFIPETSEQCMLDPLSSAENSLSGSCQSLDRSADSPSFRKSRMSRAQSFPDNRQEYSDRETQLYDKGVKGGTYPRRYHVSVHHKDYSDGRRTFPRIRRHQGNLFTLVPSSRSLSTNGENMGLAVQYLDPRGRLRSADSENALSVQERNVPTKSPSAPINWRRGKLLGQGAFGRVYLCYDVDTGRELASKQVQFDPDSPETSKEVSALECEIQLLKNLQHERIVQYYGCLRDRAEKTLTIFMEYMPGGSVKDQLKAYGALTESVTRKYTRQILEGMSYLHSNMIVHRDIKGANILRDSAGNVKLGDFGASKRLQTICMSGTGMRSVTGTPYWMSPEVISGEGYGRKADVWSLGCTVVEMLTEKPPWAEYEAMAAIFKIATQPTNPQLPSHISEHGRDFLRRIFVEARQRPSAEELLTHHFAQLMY

Row | EC50 | Ki | Compound
1 | > 30 µM (inactive) | – | CCCCCCCCCCOC(=O)Cn1c(COc2ccc(OC)cc2)[n+](C)c2ccccc21
2 | > 30 µM (inactive) | – | CC(=O)c1c(C)[nH]c(C(=O)NC2=NCCS2)c1C
3 | > 30 µM (inactive) | – | O=C(CCCC(=O)N(CC(=O)NC1CCCC1)C1CCCC1)Nc1ccccn1
4 | 8.75 µM | 7.49 µM | COc1ccc2nc(C)cc(N/N=C/c3ccc(F)cc3)c2c1
5 | > 30 µM (inactive) | – | CCN(CC)CCOC(=O)c1ccc(N/C=C(/C#N)c2nc(-c3cccc(OC)c3)cs2)cc1
6 | > 30 µM (inactive) | – | c1ccc(CNc2nc(NCc3ccccc3)c3ccccc3n2)cc1
7 | 10.6 µM | 9.04 µM | Brc1ccc(N=C/C=C/C=C/Nc2ccc(Br)cc2)cc1
8 | > 30 µM (inactive) | – | CCCN(CCC)CCNC(=O)c1cc2c(-c3ccc(Cl)cc3)nn(C)c2s1
9 | > 30 µM (inactive) | – | C#CCOCCOCCOCCNc1nc(N2CCN(C(=O)C(Cc3ccc(O)cc3)n3cc(C(N)CC(C)C)nn3)CC2)nc(N2CCN(C(=O)C(Cc3cc4ccccc4[nH]3)n3cc(C(N)Cc4ccc(O)cc4)nn3)CC2)n1 (stereo unspecified)
10 | > 30 µM (inactive) | – | CC(=O)Nc1cccc2c1C(=O)N(c1cccc(C)c1)C2=O
11 | > 30 µM (inactive) | – | CCCCCc1cc(=O)oc2c(C(CCN3CCCC3)c3ccc(N(C)C)cc3)c(OC)cc(OC)c12 (stereo unspecified)
12 | > 30 µM (inactive) | – | NC(=O)CSc1nnc(Cc2ccc3c(c2)OCO3)o1
13 | 2.83 µM | 2.42 µM | CCC(/C=C1\Sc2ccc(OC)cc2N1CCO)=C\c1sc2ccc(OC)cc2[n+]1CCO
14 | > 30 µM (inactive) | – | CCCCN(CC)CCNC(=O)c1cc2c(-c3ccc(Cl)cc3)nn(C)c2s1
15 | > 30 µM (inactive) | – | CCCCCCCCCCOC(=O)Cn1c(COc2ccc(C)cc2)[n+](C)c2ccccc21
16 | > 30 µM (inactive) | – | COc1cc2nc(N3CCN(c4cc(C)ccc4C)CC3)nc(N)c2cc1OC
17 | 3.98 µM | 3.41 µM | Cc1cc2cc(CNC(=O)NC3CCCCC3)ccc2[nH]1
18 | > 30 µM (inactive) | – | COc1cc(/C=N/NC(=O)c2cc3ccccc3cc2O)ccc1OCCN1CCCCC1
19 | 9.27 µM | 7.93 µM | CCN1/C(=C\c2ccc3cc(C)ccc3[n+]2CC)Sc2cc(C)c(C)cc21
20 | 7.87 µM | 6.73 µM | Nc1cc2nc[nH]c2cc1N
21 | > 30 µM (inactive) | – | CN(C)c1ccc(NC(=O)CN2CCC(O)(c3ccccc3)CC2)cc1
22 | > 30 µM (inactive) | – | O=[N+]([O-])c1ccc(/C=C/C2=NN(c3ccccc3)C(c3ccco3)C2)o1 (stereo unspecified)
23 | > 30 µM (inactive) | – | CCCN1C(=O)/C(=C\C=C2/Sc3ccccc3N2CC)SC1=S
24 | > 30 µM (inactive) | – | COc1ccccc1N(CN1C(=O)c2ccccc2C1=O)C(=O)c1cccc(C)c1
25 | > 30 µM (inactive) | – | CCCOc1ccc2c(c1)C(=NN=C(N)N)c1cc(OCCC)ccc1-2
26 | 5.57 µM | 4.77 µM | Cc1cc2ccccc2n1CCNC(=O)c1ccccc1
27 | > 30 µM (inactive) | – | CCn1cc(C(=O)O)c(=O)c2cc(F)c(N3CCN(C(=S)NC(=O)c4ccc(Br)cc4)CC3)cc21

Row | EC50 | Ki | Compound
28 | 1.01 µM | 0.86 µM | CCN1/C(=C/C(C)=C/c2sc3ccccc3[n+]2CC)Sc2ccccc21
29 | > 30 µM (inactive) | – | CCN1/C(=C/c2ccc3cc(C)ccc3[n+]2C)Sc2ccc3sccc3c21
30 | > 30 µM (inactive) | – | CCN1CCN(CCNC(=O)c2ccc(/C=C3/Sc4ccccc4N(Cc4cccc(C)c4)C3=O)cc2)CC1
31 | > 30 µM (inactive) | – | O=C(OCC1O[C@@H](OC(=O)c2cc(O)c(O)c(O)c2)[C@@H](OC(=O)c2cc(O)c(O)c(O)c2)[C@@H](OC(=O)c2cc(O)c(O)c(O)c2)[C@@H]1OC(=O)c1cc(O)c(O)c(O)c1)c1cc(O)c(O)c(O)c1 (stereo partly specified)
32 | > 30 µM (inactive) | – | CNC(=O)C(=O)Nc1c(C)cc(C)cc1C
33 | > 30 µM (inactive) | – | C#CCOCCOCCOCCNc1nc(N2CCN(C(=O)[C@H](Cc3cc4ccccc4[nH]3)n3cc([C@@H](N)C(C)CC)nn3)CC2)nc(N2CCN(C(=O)[C@H](CCCCN)n3cc([C@@H](N)CC(C)C)nn3)CC2)n1 (stereo partly specified)
34 | > 30 µM (inactive) | – | CC[n+]1c(/C=C/C=C/N(C(C)=O)c2ccccc2)sc2ccccc21
35 | > 30 µM (inactive) | – | Cc1ccnc(NC(=O)C2(c3cccs3)CCOCC2)c1
36 | > 30 µM (inactive) | – | COc1ccc(N2CC(C(=O)Nc3nnc(SCc4ccccn4)s3)CC2=O)cc1 (stereo unspecified)
37 | > 30 µM (inactive) | – | C#CCOCCOCCOCCNc1nc(N2CCN(C(=O)C(Cc3ccc(O)cc3)n3cc(C(N)CC(C)C)nn3)CC2)nc(N2CCN(C(=O)C(Cc3cc4ccccc4[nH]3)n3cc(C(N)C(C)CC)nn3)CC2)n1 (stereo unspecified)
38 | 10.6 µM | 9.04 µM | CCN1/C(=C/c2ccc3cc(C)cc(C)c3[n+]2CC)Sc2cc(C)ccc21
39 | > 30 µM (inactive) | – | CCOC(=O)N1CCN(c2c(N3CCN(c4ccccc4F)CC3)c(=O)c2=O)CC1
40 | 0.34 µM | 0.29 µM | CN(c1ccccc1)c1ccc(/C=c2\s/c(=C(/C#N)C(=O)C(C)(C)C)n(Cc3ccco3)c2=O)cc1
41 | > 30 µM (inactive) | – | C#CCOCCOCCOCCNc1nc(N2CCN(C(=O)[C@H]([C@@H](C)CC)n3cc([C@@H](N)Cc4ccc(O)cc4)nn3)CC2)nc(N2CCN(C(=O)[C@H](CCCCN)n3cc([C@@H](N)CC(C)C)nn3)CC2)n1
42 | > 30 µM (inactive) | – | O=C(Nc1ccc(Cl)cn1)c1ccc2c(Cl)c3c(nc2c1)CCC3
43 | > 30 µM (inactive) | – | CCOC(=O)c1c(C)n(-c2ccc(C)cc2)c2ccc(OCC(O)CN3CCN(C)CC3)cc12 (stereo unspecified)
44 | > 30 µM (inactive) | – | CCc1ccc(Nc2n[n+](-c3ccccc3)c(-c3ccc(OC)c(Br)c3)s2)cc1
45 | > 30 µM (inactive) | – | COc1ccc(CNC[C@@H](CCCCN(C)Cc2ccc(OC)cc2)N2C[C@H](c3ccccc3)N(CCc3ccc(Cl)c(Cl)c3)C(=O)C2=O)cc1
46 | > 30 µM (inactive) | – | CC[C@@H](C)[C@H](CNC)NC[C@@H](Cc1cccc2ccccc12)NCCc1cccc(C(F)(F)F)c1
47 | > 30 µM (inactive) | – | CC(=O)Nc1ccc(OCC(O)Cn2c3ccccc3c3ccccc32)cc1 (stereo unspecified)
48 | > 30 µM (inactive) | – | COc1ccccc1N1CCN(S(=O)(=O)c2ccc(Cl)s2)CC1
49 | > 30 µM (inactive) | – | CCN1CCN(Cc2ccc(NC(=O)c3ccc(C)c(NC(=O)C(=O)c4c[nH]c5ccccc45)c3)cc2C(F)(F)F)CC1
50 | > 30 µM (inactive) | – | Cc1c2cc(O)c(=O)cc-2oc2cc(O)c(O)cc12
51 | > 30 µM (inactive) | – | OCCCCNCc1ccc(OCc2ccc(Cl)cc2Cl)cc1
52 | > 30 µM (inactive) | – | CCCCCCCCCCCCCCCC[n+]1ccc(/C=N/O)cc1
53 | 3.81 µM | 3.26 µM | CCN(CC)CCOC(=O)c1ccc(N/C=C(/C#N)c2nc(-c3cc4ccccc4oc3=O)cs2)cc1
54 | > 30 µM (inactive) | – | CCOC(=O)c1c(CSC(=N)N)n(-c2ccc(C)cc2)c2cc(Br)c(OC(C)=O)cc12

Row | EC50 | Ki | Compound
55 | > 30 µM (inactive) | – | COc1ccc(CSc2n[nH]c(C)n2)cc1[N+](=O)[O-]
56 | > 30 µM (inactive) | – | CCc1ccc(Nc2n[n+](-c3ccccc3)c(-c3ccc(OCc4ccccc4)cc3)s2)cc1
57 | > 30 µM (inactive) | – | C#CCOCCOCCOCCNc1nc(N2CCN(C(=O)[C@H](Cc3ccc(O)cc3)n3cc([C@@H](N)CC(C)C)nn3)CC2)nc(N2CCN(C(=O)[C@H](Cc3ccc(O)cc3)n3cc([C@@H](N)CC(C)C)nn3)CC2)n1
58 | 2.68 µM | 2.29 µM | CN1CCN(c2ccc(NC(=O)c3ccc(-c4ccc(Cl)cc4)o3)cc2)CC1
59 | > 30 µM (inactive) | – | CN(C)CCCNc1cc(C(C)(C)C)nc2c(-c3ccc(Cl)cc3)cnn12
60 | > 30 µM (inactive) | – | COCc1c(C#N)c(NCCc2ccccc2)nc(C)c1[N+](=O)[O-]
61 | > 30 µM (inactive) | – | COc1ccc(-c2cc(C#N)nc(N3CCNCC3)n2)cc1
62 | > 30 µM (inactive) | – | CN1CCN(CC(O)COc2ccc(C34CC5CC(CC(C5)C3)C4)cc2)CC1 (stereo unspecified)
63 | > 30 µM (inactive) | – | CS(=O)(=O)N1N=C(c2ccccc2)CC1c1ccc2c(c1)OCO2 (stereo unspecified)
64 | > 30 µM (inactive) | – | CCc1ccc(-c2nn(-c3ccccc3)cc2CSC(=N)N)cc1
65 | > 30 µM (inactive) | – | Cc1nc(N)sc1-c1csc(Nc2ncccn2)n1
66 | > 30 µM (inactive) | – | C#CCOCCOCCOCCNc1nc(N2CCN(C(=O)[C@H](Cc3ccc(O)cc3)n3cc([C@@H](N)CC(C)C)nn3)CC2)nc(N2CCN(C(=O)[C@H](Cc3cc4ccccc4[nH]3)n3cc([C@@H](N)CC(C)C)nn3)CC2)n1
67 | > 30 µM (inactive) | – | CN1CCN(CC(=O)N2CCn3c4c(c5cc(C6CCCCC6)ccc53)CCCC42)CC1 (stereo unspecified)
68 | > 30 µM (inactive) | – | C#CCOCCOCCOCCNc1nc(N2CCN(C(=O)[C@H](Cc3cc4ccccc4[nH]3)n3cc([C@@H](N)C(C)CC)nn3)CC2)nc(N2CCN(C(=O)[C@H](Cc3cc4ccccc4[nH]3)n3cc([C@@H](N)CC(C)C)nn3)CC2)n1 (stereo partly specified)
69 | > 30 µM (inactive) | – | CCOC(=O)C1=C(c2ccccc2)NC(N)=NC1c1ccc(OCc2ccc(C(=O)OC)cc2)cc1 (stereo unspecified)
70 | > 30 µM (inactive) | – | COc1ccc(C2NCCc3c2[nH]c2ccccc32)cc1CN1CCc2cc(OC)c(OC)cc2C1C (stereo unspecified)
71 | > 30 µM (inactive) | – | CN(C)CCCN(C(=O)c1ccc2c(c1)CCCC2)c1nc2ccc(Cl)cc2s1
72 | > 30 µM (inactive) | – | Cc1ccc(CN2CCSc3ccc(C(=O)NC4CCN(Cc5ccccc5)CC4)cc32)cc1
73 | > 30 µM (inactive) | – | CCCCCc1cc(=O)oc2c(C(CCN3CCCCC3)c3ccc(OC)cc3)c(OC)cc(OC)c12 (stereo unspecified)
74 | > 30 µM (inactive) | – | CNC[C@H](CC1CCCCC1)NC[C@H](Cc1ccccc1)NCCC12CC3CC(CC(C3)C1)C2
75 | > 30 µM (inactive) | – | S=C(Nc1cccc(Cl)c1)N(CCCN1CCCC1)Cc1cccn1Cc1ccc(Cl)cc1
76 | > 30 µM (inactive) | – | CN(C)CCNc1ncnc2c1sc1nc(-c3ccccc3)c3c(c12)CCCC3
77 | > 30 µM (inactive) | – | C#CCOCCOCCOCCNc1nc(N2CCN(C(=O)[C@H]([C@@H](C)CC)n3cc([C@@H](N)CC(C)C)nn3)CC2)nc(N2CCN(C(=O)[C@H](Cc3cc4ccccc4[nH]3)n3cc([C@@H](N)Cc4ccc(O)cc4)nn3)CC2)n1
78 | > 30 µM (inactive) | – | CC(C)N=c1cc2n(-c3ccc(Cl)cc3)c3ccccc3nc-2cc1Nc1ccc(Cl)cc1
79 | > 30 µM (inactive) | – | Cc1ccc(-n2cc(CNCCCn3ccnc3C)c(-c3ccc(F)cc3)n2)cc1
